Assay results as given in US8629273B2, “Diazinylpyrazolyl compounds” (Bayer Intellectual Property GmbH, priority 2009, dated 2014).

Tests used:
[1] = tested on: Boophilus microplus strain Parkhurst (SP-resistant); assay: Boophilus microplus test (DIP); assay type: in vivo; conditions: 100 ppm
Protocol: Test animals: adult fed females of the Boophilus microplus strain Parkhurst (SP-resistant)
Solvent: Dimethyl sulphoxide
10 mg of active compound are dissolved in 0.5 ml of dimethyl sulphoxide. To produce a suitable formulation, the active compound solution is diluted with water to the particular desired concentration. This active compound preparation is pipetted into tubes. 8-10 ticks are transferred into a further tube provided with holes. The tube is dipped into the active compound preparation, with all ticks being wetted completely. After the liquid has run off, the ticks are transferred to filter discs in plastic dishes and kept in a climatized room. After the desired period of time, the activity is checked for deposition of fertile eggs. Eggs whose fertility is not visible from the outside are kept in glass tubes in a climatized cupboard under the larvae have hatched. An activity of 100% means that no tick has laid fertile eggs.

[2] = tested on: Ctenocephalides felis; assay: Ctenocephalides felis oral (CTECFE); assay type: in vivo; conditions: 100 ppm in citrated cattle blood, after 2 days
Protocol: Solvent: 1 part by weight of dimethyl sulphoxide To produce a suitable preparation of active compound, 10 mg of active compound are mixed with 0.5 ml of dimethyl sulphoxide. One part of the concentrate is diluted with citrated cattle blood, and the desired concentration is prepared. 20 unfed adult fleas (Ctenocephalides felis) are placed into a chamber whose top and bottom ends are closed with gauze. A metal cylinder whose bottom end is closed with parafilm is placed onto the chamber. The cylinder contains the blood/active compound preparation, which can be taken up by the fleas through the parafilm membrane. After 2 days, the kill in % is determined. 100% means that all fleas have been killed; 0% means that none of the fleas have been killed.

[3] = logP by HPLC on reversed-phase columns (C 18), EU Guideline 79/831 Annex V.A8; assay type: physicochemical; conditions: ** LC-MS in the neutral range, pH 7.8, 0.001 molar aqueous ammonium bicarbonate and acetonitrile
[4] = tested on: Lucilia cuprina larvae; assay: Lucilia cuprina test (LUCICU); assay type: in vivo; conditions: 100 ppm, treated horse meat, after 2 days
Protocol: Solvent: Dimethyl Sulphoxide To produce a suitable preparation of active compound, 10 mg of active compound are mixed with 0.5 ml of dimethyl sulphoxide, and the concentrate is diluted with water to the desired concentration. Containers containing horse meat treated with the active compound preparation of the desired concentration are populated with Lucilia cuprina larvae. After 2 days, the kill in % is determined. 100% means that all larvae have been killed; 0% means that none of the larvae have been killed.

[5] = tested on: Boophilus microplus; assay: Boophilus microplus test (BOOPMI injection); assay type: in vivo; conditions: 20 μg/animal, injected into the abdomen, after 7 days
Protocol: Solvent: Dimethyl Sulphoxide To produce a suitable preparation of active compound, 10 mg of active compound are mixed with 0.5 ml of solvent, and the concentrate is diluted with water to the desired concentration. The active compound solution is injected into the abdomen (Boophilus microplus) and the animals are transferred into dishes and stored in a climatized room. The activity is monitored for deposition of fertile eggs. After 7 days, the activity in % is determined. 100% means that none of the ticks has laid fertile eggs.

[6] = tested on: adult Musca domestica; assay: Musca domestica test (MUSCDO); assay type: in vivo; conditions: treated sponge
Protocol: Solvent: Dimethyl sulphoxide To prepare a suitable preparation of active compound, 10 mg of active component are mixed with 0.5 ml of dimethyl sulphoxide, and the concentrate is diluted with water to the desired concentration. Vessels containing a sponge which had been treated with the active compound preparation of the desired concentration are populated with adult Musca domestica. After the desired period of time, the kill in % is determined. 100% means that all flies have been killed; 0% means that none of the flies have been killed.

[7] = tested on: caterpillars of the army worm (Spodoptera frugiperda); assay: Spodoptera frugiperda test (SPODFR spray treatment); assay type: in vivo; conditions: 100 g/ha, after 7 days
Protocol: Solvents: 78.0 parts by weight of acetone • • 1.5 parts by weight of dimethyl formamide Emulsifier: 0.5 part by weight of alkylaryl polyglycol ether To produce a suitable preparation of active compound, 1 part by weight of active compound is mixed with the stated amounts of solvent and emulsifier, and the concentrate is diluted with emulsifier-containing water to the desired concentration. Discs of maize leaves (Zea mays) are sprayed with an active compound preparation of the desired concentration and, after drying, populated with caterpillars of the army worm (Spodoptera frugiperda). After 7 days, the activity in % is determined. 100% means that all caterpillars have been killed; 0% means that none of the caterpillars have been killed. The test was carried out and evaluated as described in Example B.5.

[8] = tested on: larvae of the mustard beetle (Phaedon cochleariae); assay: Phaedon test (PHAECO spray treatment); assay type: in vivo; conditions: 100 g/ha, after 7 days
Protocol: Solvents: 78.0 parts by weight of acetone • • 1.5 parts by weight of dimethyl formamide Emulsifier: 0.5 part by weight of alkylaryl polyglycol ether To produce a suitable preparation of active compound, 1 part by weight of active compound is mixed with the stated amounts of solvent and emulsifier, and the concentrate is diluted with emulsifier-containing water to the desired concentration. Discs of Chinese cabbage leaves (Brassica pekinensis) are sprayed with an active compound preparation of the desired concentration and, after drying, populated with larvae of the mustard beetle (Phaedon cochleariae). After 7 days, the activity in % is determined. 100% means that all beetle larvae have been killed; 0% means that none of the beetle larvae have been killed. The test was carried out and evaluated as described in Example B.4.

SMILES	logP [3]	activity (no deposition of fertile eggs) [1]	kill [2]	kill [4]	activity (no deposition of fertile eggs) [5]	kill ([6]; 100 ppm)	activity (caterpillars killed) [7]	activity (beetle larvae killed) [8]	kill ([6]; 20 ppm)
FC(F)C(F)(F)c1nn(-c2ncccn2)c(N=Cc2ccccc2)c1-c1cc(Cl)c2c(c1)OCO2 [Example 1-24]	3.9**	100%	100%	100%	100%	80%	100%	100%	–
COc1ccc(C=Nc2c(-c3cc(Cl)c4c(c3)OCO4)c(C(F)(F)C(F)F)nn2-c2ncccn2)cc1 [Example 1-23]	3.85**	100%	100%	100%	100%	–	100%	100%	–
FC(F)(F)c1cc(Cl)cc(-c2c(C(F)(F)C(F)(F)F)nn(-c3ncccn3)c2N=Cc2ccccc2)c1 [Example 1-42]	5.46**	–	95%	100%	100%	100%	100%	100%	–
COc1cc(C=Nc2c(-c3cc(Cl)cc(C(F)(F)F)c3)c(C(F)(F)C(F)F)nn2-c2ncccn2)cc(OC)c1OC [Example 1-29]	4.67**	–	95%	100%	100%	100%	100%	100%	–
COc1ccc(C=Nc2c(-c3cc(Cl)c4c(c3)OCO4)c(C(F)(F)F)nn2-c2ncccn2)cc1 [Example 1-26]	3.97**	100%	100%	100%	100%	–	100%	100%	–
COc1cc(C=Nc2c(-c3cc(Cl)c4c(c3)OCO4)c(C(F)(F)C(F)F)nn2-c2ncccn2)cc(OC)c1OC [Example 1-30]	3.72**	100%	100%	100%	100%	–	100%	100%	–
FC(F)C(F)(F)c1nn(-c2ncccn2)c(N=Cc2ccc(Cl)cc2)c1-c1cc(Cl)cc(C(F)(F)F)c1 [Example 1-20]	5.37**	–	95%	100%	100%	100%	100%	100%	–
CCOC=Nc1c(-c2cc(Cl)c3c(c2)OCO3)c(C(F)(F)F)nn1-c1ncccn1 [Example 1-33]	3.49**	100%	100%	100%	100%	–	100%	100%	–
FC(F)(F)c1nn(-c2ncccn2)c(N=Cc2ccc(Cl)cc2)c1-c1cc(Cl)c2c(c1)OCO2 [Example 1-25]	4.51**	100%	100%	100%	100%	–	100%	100%	100%
COc1cc(C=Nc2c(-c3cc(Cl)c4c(c3)OCO4)c(C(F)(F)F)nn2-c2ncccn2)cc(OC)c1OC [Example 1-27]	3.82**	100%	100%	100%	100%	80%	–	100%	–

The next lines start with results.

logP [3]	SMILES	activity (no deposition of fertile eggs) [1]	kill [2]	kill [4]	activity (no deposition of fertile eggs) [5]	kill ([6]; 100 ppm)	activity (caterpillars killed) [7]	activity (beetle larvae killed) [8]	kill ([6]; 20 ppm)
5.1**	COc1nccnc1-n1nc(C(F)(F)F)c(-c2cc(Cl)c3c(c2)OCO3)c1N=Cc1ccc(Cl)cc1 [Example 2-14]	100%	100%	100%	100%	90%	–	–	–
5.35**	COc1cc(C=Nc2c(-c3cc(Cl)cc(C(F)(F)F)c3)c(C(F)(F)F)nn2-c2nccnc2OC)cc(OC)c1OC [Example 2-16]	100%	–	100%	100%	90%	–	–	–
5.12**	COc1cc(C=Nc2c(-c3cc(Cl)cc(C(F)(F)F)c3)c(C(F)(F)C(F)F)nn2-c2nccnc2OC)cc(OC)c1OC [Example 2-17]	100%	–	100%	100%	100%	–	–	–
5.37**	COc1nccnc1-n1nc(C(F)(F)C(F)F)c(-c2cc(Cl)cc(C(F)(F)F)c2)c1N=Cc1ccccc1 [Example 2-11]	90%	90%	100%	100%	90%	–	–	–
4.48**	COc1nccnc1-n1nc(C(F)(F)C(F)F)c(-c2cc(Cl)c3c(c2)OCO3)c1N=Cc1ccccc1 [Example 2-13]	100%	100%	100%	100%	80%	–	–	–
4.58**	COc1nccnc1-n1nc(C(F)(F)F)c(-c2cc(Cl)c3c(c2)OCO3)c1N=Cc1ccccc1 [Example 2-6]	100%	100%	100%	100%	–	–	–	–
6.01**	COc1nccnc1-n1nc(C(F)(F)F)c(-c2cc(Cl)cc(C(F)(F)F)c2)c1N=Cc1ccc(Cl)cc1 [Example 2-7]	100%	90%	100%	100%	90%	–	–	–
5.48**	COc1ccc(C=Nc2c(-c3cc(Cl)cc(C(F)(F)F)c3)c(C(F)(F)F)nn2-c2nccnc2OC)cc1 [Example 2-8]	100%	95%	100%	100%	–	–	–	–
